Results published in ChEMBL document CHEMBL5360614, “Quinoline Thiourea-Based Zinc Ionophores with Antibacterial Activity” (J Med Chem, 2023).
Converted amounts (≈) assume the structure as drawn.

Legend:
Assay type in all cases: functional
Staphylococcus aureus [1] = test: Antibacterial activity against gentamicin-and methicillin-resistant Staphylococcus aureus ATCC 33592 assessed as reduction in bacterial growth incubated for 14 to 16 hrs by microbroth dilution method; settings: time 14-16 hrs
Staphylococcus aureus [2] = test: (§1) Antibacterial activity against gentamicin-and methicillin-resistant Staphylococcus aureus ATCC 33592 assessed as reduction in bacterial growth incubated for 14 to 16 hrs in presence of 200 uM ZnCl2 by microbroth dilution method; settings: time 14-16 hrs
Staphylococcus aureus [3] = test: as §1, with “1” for “200”, “1-(2-(1H-benzo[d]imidazol-1-yl)quinolin-8-yl)-3-(3,5-bis(trifluoromethyl)phenyl)thiourea” for “ZnCl2”; settings: time 14-16 hrs
Staphylococcus aureus [4] = test: as §1, with “1 uM 1-(2-(1H-benzo[d]imidazol-1-yl)quinolin-8-yl)-3-(3,5-bis(trifluoromethyl)phenyl)thiourea and 100” for “200”; settings: time 14-16 hrs
Staphylococcus aureus [5] = test: as §1, with “of 1 uM 1-(2-(1H-benzo[d]imidazol-1-yl)quinolin-8-yl)-3-(3,5-bis(trifluoromethyl)phenyl)thiourea and” for “of”; settings: time 14-16 hrs
Staphylococcus aureus [6] = test: Potency index, ratio of compound MIC to compound MIC in presence of 1 uM 1-(2-(1H-benzo[d]imidazol-1-yl)quinolin-8-yl)-3-(3,5-bis(trifluoromethyl)phenyl)thiourea and 200 uM ZnCl2 for antibacterial activity against gentamicin-and methicillin-resistant Staphylococcus aureus ATCC 33592
Staphylococcus aureus [7] = test: Antibacterial activity against Staphylococcus aureus MTCC-96 assessed as reduction in bacterial growth incubated for 14 to 16 hrs by microbroth dilution method; settings: time 14-16 hrs
Escherichia coli = test: Antibacterial activity against Escherichia coli MTCC 1687 assessed as reduction in bacterial growth incubated for 14 to 16 hrs by microbroth dilution method; settings: time 14-16 hrs

| SMILES | MIC (Staphylococcus aureus [1]) [µM] | MIC (Staphylococcus aureus [2]) [µM] | MIC (Staphylococcus aureus [3]) [µM] | MIC (Staphylococcus aureus [4]) [µM] | MIC (Staphylococcus aureus [5]) [µM] | Ratio (Staphylococcus aureus [6]) | MIC (Staphylococcus aureus [7]) [µM] | MIC (Escherichia coli) [µM] |
| --- | --- | --- | --- | --- | --- | --- | --- | --- |
| CC1(C)S[C@@H]2[C@H](NC(=O)[C@H](N)c3ccc(O)cc3)C(=O)N2[C@H]1C(=O)O [AMOXICILLIN] | 17 (≈ 6.21 µg/mL) | 17 | 17 | 4.09 | 0.05 | 341 |  |  |
| S=C(Nc1ccccc1)Nc1cccc2cccnc12 | > 50 |  |  |  |  |  | > 25 | > 50 |
| FC(F)(F)c1ccc(NC(=S)Nc2cccc3cccnc23)cc1 | 6.25 (≈ 2.17 µg/mL) |  |  |  |  |  | 6.25 (≈ 2.17 µg/mL) | > 50 |
| [Cl-].[Cl-].[Zn+2] [ZINC CHLORIDE] | 1560 |  |  |  |  |  | 1560 | 2000 |
